In paper PMC6691788, “Design and synthesis of phthalazine-based compounds as potent anticancer agents with potential antiangiogenic activity via VEGFR-2 inhibition” (Journal of Enzyme Inhibition and Medicinal Chemistry, 2019):

How the values were obtained:
Experiment in all cases: NCI 60 cell panel SRB screen
IGROV1 = type: cell-based; conditions: Homo sapiens, IGROV-1
UACC-62 = type: cell-based
SW-620 = type: cell-based; conditions: Homo sapiens
CAKI-1 = type: cell-based, human; conditions: Homo sapiens; CAKI-1, single dose 10 μM; read-out: percent cell growth promotion
BT-549 = type: cell-based; conditions: Homo sapiens
HT29 = type: cell-based; conditions: Homo sapiens, HT-29
M14 = type: cell-based; conditions: Homo sapiens
MALME-3M = type: cell-based; conditions: Homo sapiens
786-0 = type: cell-based; conditions: Homo sapiens
HS 578T = type: cell-based; conditions: Homo sapiens
SNB-75 = type: cell-based; conditions: Homo sapiens
COLO 205 = type: cell-based; conditions: Homo sapiens
HCT-116 = type: cell-based; conditions: Homo sapiens
NCI-H322M = type: cell-based; conditions: Homo sapiens
KM12 = type: cell-based; conditions: Homo sapiens
MOLT-4 = type: cell-based; conditions: Homo sapiens
HCT-15 = type: cell-based; conditions: Homo sapiens
TK-10 = type: cell-based, human; conditions: Homo sapiens; TK-10, single dose 10 μM; read-out: percent cell growth promotion
A498 = type: cell-based; conditions: Homo sapiens
HL-60(TB) = type: cell-based; conditions: Homo sapiens
SR = type: cell-based; conditions: Homo sapiens
RXF 393 = type: cell-based; conditions: Homo sapiens
OVCAR-5 = type: cell-based; conditions: Homo sapiens
U251 = type: cell-based; conditions: Homo sapiens, U-251
DU-145 = type: cell-based; conditions: Homo sapiens
SK-MEL-28 = type: cell-based; conditions: Homo sapiens
[1] = 5 log dose, 48 h, read-out: LC50 (the source's name)
[2] = single dose 10 μM, read-out: percent cell growth promotion

Compound: Clc1ccc(Nc2nnc(COc3ccccc3)c3ccccc23)cc1 [Compound 17a, N-(4-Chlorophenyl)-4-(phenoxymethyl)phthalazin-1-amine]
- GI50 (IGROV1; IGROV1, 5 log dose): 1.14 µM
- IC (TGI) (IGROV1; IGROV1, 5 log dose): 6.37 µM
- CC50 (IGROV1; IGROV1, 5 log dose, 48 h, read-out: LC50 (the source's name)): > 25 µM
- activity at 10 µM (IGROV1; IGROV1, single dose 10 μM, read-out: percent cell growth promotion): 16.1%
- GI50 (UACC-62; Homo sapiens, UACC-62): 1.24 µM
- activity at 10 µM (UACC-62; Homo sapiens, UACC-62, read-out: percent cell growth promotion): -27.7%
- CC50 (UACC-62; Homo sapiens, UACC-62, 5 log dose, 48 h, read-out: LC50 (the source's name)): 17.5 µM
- TGI (UACC-62; UACC-62, 5 log dose): 5.69 µM
- GI50 (SW-620; SW-620, 5 log dose): 2.86 µM
- IC (TGI) (SW-620; SW-620, 5 log dose): 7.79 µM
- CC50 (SW-620; SW-620, 5 log dose, 48 h, read-out: LC50 (the source's name)): 21.2 µM
- activity at 10 µM (SW-620; SW-620, single dose 10 μM, read-out: percent cell growth promotion): 15.4%
- activity at 10 µM (CAKI-1): 15.4%
- GI50 (BT-549; BT-549): 2.05 µM
- IC (TGI) (BT-549; BT-549, read-out: TGI): 6.65 µM
- activity at 10 µM (BT-549; BT-549, read-out: percent cell growth promotion): -9.97%
- CC50 (BT-549; BT-549, 5 log dose, 48 h, read-out: LC50 (the source's name)): 19 µM
- GI50 (HT29; HT29, 5 log dose): 0.42 µM
- IC (TGI) (HT29; HT29, 5 log dose): 4.25 µM
- CC50 (HT29; HT29, 5 log dose, 48 h, read-out: LC50 (the source's name)): 17.4 µM
- activity at 10 µM (HT29; HT29, single dose 10 μM, read-out: percent cell growth promotion): 1.32%
- GI50 (M14; M14): 0.91 µM
- IC (TGI) (M14; M14, read-out: TGI): 5.03 µM
- activity at 10 µM (M14; M14, read-out: percent cell growth promotion): -9.99%
- CC50 (M14; M14, 5 log dose, 48 h, read-out: LC50 (the source's name)): 15.2 µM
- GI50 (MALME-3M; Malme-3M): 1.38 µM
- IC (TGI) (MALME-3M; Malme-3M, read-out: TGI): 7.3 µM
- activity at 10 µM (MALME-3M; Malme-3M, read-out: percent cell growth promotion): -13.5%
- CC50 (MALME-3M; MALME-3M, 5 log dose, 48 h, read-out: LC50 (the source's name)): 25 µM
- GI50 (786-0; 786-0, 5 log dose): 2.6 µM
- IC (TGI) (786-0; 786-0, 5 log dose): 8.11 µM
- CC50 (786-0; 786-0, 5 log dose, 48 h, read-out: LC50 (the source's name)): > 25 µM
- activity at 10 µM (786-0; 786-0, single dose 10 μM, read-out: percent cell growth promotion): 5.25%
- GI50 (HS 578T; Hs-578T): 2.58 µM
- IC (TGI) (HS 578T; Hs-578T, read-out: TGI): 10.5 µM
- activity at 10 µM (HS 578T; Hs-578T, read-out: percent cell growth promotion): 14.4%
- CC50 (HS 578T; HS 578T, 5 log dose, 48 h, read-out: LC50 (the source's name)): > 25 µM
- GI50 (SNB-75; SNB-75, 5 log dose): 0.49 µM
- IC (TGI) (SNB-75; SNB-75, 5 log dose): 6.65 µM
- LC50 (concentration killing 50% of cells) (SNB-75; SNB-75, 5 log dose, 48 h): > 25 µM
- activity at 10 µM (SNB-75; SNB-75, single dose 10 μM, read-out: percent cell growth promotion): 13.1%
- GI50 (COLO 205; COLO 205, 5 log dose): 0.45 µM
- IC (TGI) (COLO 205; COLO 205, 5 log dose): 4.38 µM
- CC50 (COLO 205; COLO 205, 5 log dose, 48 h, read-out: LC50 (the source's name)): 16.1 µM
- activity at 10 µM (COLO 205; COLO 205, single dose 10 μM, read-out: percent cell growth promotion): -5.75%
- GI50 (HCT-116; HCT-116, 5 log dose): 1.07 µM
- IC (TGI) (HCT-116; HCT-116, 5 log dose): 4.83 µM
- LC50 (lethal concentration 50%) (HCT-116; HCT-116, 5 log dose, 48 h): 13.1 µM
- activity at 10 µM (HCT-116; HCT-116, single dose 10 μM, read-out: percent cell growth promotion): 1.21%
- GI50 (NCI-H322M; 5 log dose): 1.56 µM
- IC (TGI) (NCI-H322M; 5 log dose): 8.2 µM
- CC50 (NCI-H322M; [1]): > 25 µM
- activity at 10 µM (NCI-H322M; [2]): 21.1%
- GI50 (KM12; KM12, 5 log dose): 2.65 µM
- IC (TGI) (KM12; KM12, 5 log dose): 7.72 µM
- CC50 (KM12; KM12, 5 log dose, 48 h, read-out: LC50 (the source's name)): 22.4 µM
- activity at 10 µM (KM12; KM12, single dose 10 μM, read-out: percent cell growth promotion): 0.18%
- GI50 (MOLT-4; MOLT-4, 5 log dose): 1.06 µM
- IC (TGI) (MOLT-4; MOLT-4, 5 log dose): 6.7 µM
- CC50 (MOLT-4; MOLT-4, 5 log dose, 48 h, read-out: LC50 (the source's name)): > 25 µM
- activity at 10 µM (MOLT-4; MOLT-4, single dose 10 μM, read-out: percent cell growth promotion): -32.6%
- GI50 (HCT-15; HCT-15, 5 log dose): 2.05 µM
- IC (TGI) (HCT-15; HCT-15, 5 log dose): 6.75 µM
- CC50 (HCT-15; HCT-15, 5 log dose, 48 h, read-out: LC50 (the source's name)): 19.7 µM
- activity at 10 µM (HCT-15; HCT-15, single dose 10 μM, read-out: percent cell growth promotion): 4.45%
- activity at 10 µM (TK-10): -17.5%
- GI50 (A498; A498, 5 log dose): 0.68 µM
- IC (TGI) (A498; A498, 5 log dose): 3.64 µM
- CC50 (A498; A498, 5 log dose, 48 h, read-out: LC50 (the source's name)): 10.6 µM
- activity at 10 µM (A498; A498, single dose 10 μM, read-out: percent cell growth promotion): -17.3%
- GI50 (HL-60(TB); 5 log dose): 3.56 µM
- IC (TGI) (HL-60(TB); 5 log dose): 11.9 µM
- CC50 (HL-60(TB); [1]): > 25 µM
- activity at 10 µM (HL-60(TB); [2]): -15.7%
- GI50 (SR; 5 log dose): 1.23 µM
- IC (TGI) (SR; 5 log dose): 11.2 µM
- CC50 (SR; [1]): > 25 µM
- activity at 10 µM (SR; [2]): -20.6%
- GI50 (RXF 393; RXF 393, 5 log dose): 1.01 µM
- IC (TGI) (RXF 393; RXF 393, 5 log dose): 4.97 µM
- CC50 (RXF 393; RXF 393, 5 log dose, 48 h, read-out: LC50 (the source's name)): 14.4 µM
- activity at 10 µM (RXF 393; RXF 393, single dose 10 μM, read-out: percent cell growth promotion): -5.93%
- GI50 (OVCAR-5; OVCAR-5, 5 log dose): 3.88 µM
- IC (TGI) (OVCAR-5; OVCAR-5, 5 log dose): 15.4 µM
- CC50 (OVCAR-5; OVCAR-5, 5 log dose, 48 h, read-out: LC50 (the source's name)): > 25 µM
- activity at 10 µM (OVCAR-5; OVCAR-5, single dose 10 μM, read-out: percent cell growth promotion): 23.1%
- GI50 (U251; U251, 5 log dose): 1.24 µM
- IC (TGI) (U251; U251, 5 log dose): 7.47 µM
- CC50 (U251; U251, 5 log dose, 48 h, read-out: LC50 (the source's name)): 19.1 µM
- activity at 10 µM (U251; U251, single dose 10 μM, read-out: percent cell growth promotion): -12.7%
- GI50 (DU-145; DU-145, 5 log dose): 2.65 µM
- IC (TGI) (DU-145; DU-145, 5 log dose): 10.5 µM
- CC50 (DU-145; DU-145, 5 log dose, 48 h, read-out: LC50 (the source's name)): > 25 µM
- activity at 10 µM (DU-145; DU-145, single dose 10 μM, read-out: percent cell growth promotion): 10.4%
- GI50 (SK-MEL-28; SK-MEL-28): 2.84 µM
- IC (TGI) (SK-MEL-28; SK-MEL-28, read-out: TGI): 7.23 µM
- activity at 10 µM (SK-MEL-28; SK-MEL-28, read-out: percent cell growth promotion): 4.73%
- CC50 (SK-MEL-28; SK-MEL-28, 5 log dose, 48 h, read-out: LC50 (the source's name)): 18.4 µM
